For 2 molecules, EC50, TGI and Activity results are on record in ChEMBL document CHEMBL4421737, “D-3-phosphoglycerate dehydrogenase allosteric inhibitor and use thereof” (2018).

In experiment [1] the test system is HCC70. Nature of the experiment: Cytotoxicity against human HCC70 cells assessed as reduction in cell viability incubated for 72 hrs by MTT assay. The class given is functional, cell-based. The conditions noted are these: HCC70, 72 h.
Experiment [2] has as its system MCF-10A. The experiment in a line: Cytotoxicity against human MCF10A cells assessed as reduction in cell viability incubated for 72 hrs by MTT assay. The class given is cell-based.
Experiment [3] deals with ZR-75-1. The experiment in a line: Cytotoxicity against human ZR-75-1 cells assessed as reduction in cell viability incubated for 72 hrs by MTT assay. The experiment is classed as functional, cell-based. The conditions noted are these: ZR-75-1, 72 h. For orientation: Formazan colour is commonly taken as a measure of viable cells.
Experiment [4] deals with MCF7. Nature of the experiment: Cytotoxicity against human MCF7 cells assessed as reduction in cell viability incubated for 72 hrs by MTT assay. The settings on record: MCF7, 72 h. The class given is functional, cell-based.
For experiment [5], the system named is MDA-MB-468. Nature of the experiment: Antitumor activity against human MDA-MB-468 cells xenografted in NOD.CB17-Prkdc scid/J mouse assessed as inhibition of tumor growth at 20 mg/kg/day co-treated with 2.5mg/kg/4day doxorubicin measured every two days up to 11 days post treatment initiation relative to doxorubicin alone. The experiment is classed as functional. (In general: In xenograft studies the graft and the host belong to different species.)

The test system of experiment [6] is MDA-MB-468. The experiment in a line: Antitumor activity against human MDA-MB-468 cells xenografted in NOD.CB17-Prkdc scid/J mouse assessed as inhibition of tumor growth at 20 mg/kg/day co-treated with 2.5mg/kg/4day doxorubicin measured every two days up to 11 days post treatment initiation relative to compound alone. The class given is functional.
Experiment [7] relates to MDA-MB-468. The experiment in a line: Induction of cell cycle arrest in human MDA-MB-468 cells assessed as accumulation at G0/G1 phase at 10 to 160 uM incubated for 24 hrs by propidium iodide staining based flow cytometry. The class given is functional. A general note: In flow cytometry, cells or beads pass a laser one at a time.
Experiment [8] concerns MDA-MB-468. The experiment in a line: Antitumor activity against human MDA-MB-468 cells xenografted in NOD.CB17-Prkdc scid/J mouse assessed as inhibition of tumor growth at 20 mg/kg/day measured every two days up to 70 days post treatment initiation. The class given is functional, organism-based.
Experiment [9] relates to DLD-1. Nature of the experiment: Cytotoxicity against human DLD1 cells assessed as reduction in cell viability incubated for 72 hrs by MTT assay. The settings on record: DLD-1, 72 h. The class given is functional, cell-based.
Experiment [10] has as its system MDA-MB-468. The experiment in a line: Cytotoxicity against human MDA-MB-468 cells assessed as reduction in cell viability incubated for 72 hrs by MTT assay. The class given is functional, cell-based. The settings on record: MDA-MB-468, 72 h.
Experiment [11] has as its system MDA-MB-231. Nature of the experiment: Cytotoxicity against human MDA-MB-231 cells assessed as reduction in cell viability incubated for 72 hrs by MTT assay. The experiment is classed as functional, cell-based. The settings on record: MDA-MB-231, 72 h.
Experiment [12] relates to MDA-MB-468. Nature of the experiment: Induction of cell cycle arrest in human MDA-MB-468 cells assessed as accumulation at G0/G1 phase at 2.5 to 40 uM incubated for 24 hrs by propidium iodide staining based flow cytometry. The class given is functional.

SMILES strings stand for the structures. Active and inactive are the calls of the source. The rule behind the calls is not given here.

What is called EC50 is the concentration giving half of the maximal effect. For the molecule `CCNC(=S)N/N=C/c1ccc(-c2ccc(C(=O)O)c(Cl)c2)o1`, the EC50 in experiment [1] is 10 µM; in [2] it was 64.7 µM; in experiment [3], 125 µM; in [4] it was greater than 200 µM; in experiment [9], 167 µM; in experiment [10], 6.9 µM. Further, the concentration giving a half-maximal response (EC50) in [11] is greater than 200 µM. The TGI in experiment [5] and in [6] was 41% each time. Moreover, the outcome in experiment [7] was Active. Also, the TGI result in experiment [8] was “Active”.
Consider `O=C(N/N=C/c1cc([N+](=O)[O-])ccc1O)c1ccc(O)cc1O`, for which the EC50 in experiment [1] turned out to be 10.8 µM; in [2], 45.8 µM; in [3], 83.4 µM; in [9], 18.3 µM; in experiment [10], 7.7 µM; in experiment [11], 27.7 µM. Further, the outcome in experiment [12] was Active. Besides, the TGI result in experiment [8] was “Active”.
